How the values were obtained:
C. albicans SN152 = test: Galleria mellonella infection model, SN152 strain; type: in vivo, Candida albicans; settings: G. mellonella, 10 mg/kg
Method: To assess whether Eno1 is a therapeutic target of BE, we constructed a homozygous deletion strain for the ENO1 gene (eno1/eno1). We then investigated the difference in the antifungal efficacy of BE on the infections caused by the parent strain SN152 and the eno1/eno1 strain in the Galleria mellonella infection model. We divided the G. mellonella into 5 groups, with 10 larvae in each group. All 10 larvae died after a 24-h infection with the SN152 strain, while only 3 larvae died after 24 h when infected with the eno1/eno1 strain; the remaining larvae died within 7 days. Compared with the group infected with the parent strain, the survival time of the group infected with the eno1/eno1 strain was longer (P < 0.01) (Fig. 4A). […]
FIG 4 Eno1 acts as a therapeutic target of BE. […] Each curve represents a group of 10 larvae (n =10) monitored daily for survival for up to 10 days after infection. […]
Virulence testing of C. albicans was done in Galleria mellonella as described previously ([56]). […] After growth in YPD media overnight at 30°C and 200 rpm, C. albicans SN152 cells or eno1/eno1 mutant cells were washed with PBS 3 times and diluted to the desired concentration (1 × 10^7 cells/mL) determined by counting with a hemacytometer. […] The death of G. mellonella was assessed daily and analyzed statistically by the Kaplan-Meier method (log-rank test).

Candida albicans 103 = test: Checkerboard microdilution assay with fluconazole; type: cell-based
Excerpt: Ta b l e S3. Interaction of fluconazole ( FLC) and BE probes against isolates of Candida albicans
Compounds Molecular structure Individual action Interaction MIC(μg/ mL ) FICI Mode of
MIC (μg /mL) FLC Compounds interaction

C. albicans = test: Treatment in liquid YP medium with different carbon sources, then spotting on solid YPD; type: cell-based, Candida albicans; settings: 128 μg/mL BE, 48 h
Excerpt: FIG 2 Eno1 is a target of BE. (A) Schematic diagram of synthesis label-BE. Label-BE is synthesized by intermediate TPD-10a with benzyl bromide structure and triacetylated BE. (B) The molecular structure of label-BE. Label-BE contains a trifluoromethylphenyl diazo heterocyclic propylene group (marked by a red dotted line) as a photoaffinity group to enhance the binding of label-BE to its target proteins and an alkyne group (marked by a blue dotted line) connected with an azide group (from the TAMRA-N3 or biotin-N3) by a copper-catalyzed azide-alkyne cycloaddition. (C) The molecular structures of TAMRA-N3 and biotin-N3. Both of them contain azide groups (marked by a blue dotted line) connected with an alkyne group of label-BE to highlight the target proteins of label-BE. (D) The competition experiment with BE and label-BE used the TAMRA-N3 as a reporter. C. albicans cell lysates were preincubated with 100 μM BE (lane 2) or not (lane 3). Subsequently, the two groups were incubated with 10 μM label-BE and irradiated with UV light at 365 nm and then treated with TAMRA-N3. After separation of SDS-PAGE, label-BE-targeted proteins were visualized by in-gel fluorescence scanning. The three fluorescent bands in lane 3 (indicated by red triangles) were cut out and pooled and then analyzed by LC-MS/MS. (E) The competition experiment with BE and label-BE used the biotin-N3 as a reporter. In the following enrichment with streptavidin-conjugated beads and separation by SDS-PAGE gel, targets of label-BE were visualized by Coomassie blue staining. The brighter band in lane 3 (indicated by red triangle) was then cut out and analyzed by LC-MS/MS. […] C. albicans cells were first treated with 128 μg/mL BE in liquid YP medium with either 3-PG (32 mg/mL), pyruvate (32 mg/mL), glucose (20 mg/mL), or glycerol (2% [vol/vol]) for 48 h and then were spotted (1:10 dilution) onto solid YPD medium and photographed after 48 h of incubation at 30°C. The red termination line represents inhibition; 3-PG, 3-phosphoglyceric acid. (G) The competition experiment with BE and label-BE used the TAMRA-N3 as a reporter by E. coli cell lysates containing recombinant C. albicans Eno1.
In order to further identify which glycolysis-related protein is the target of BE, we investigated the antifungal activity of BE in the media containing different intermediate products of glycolysis. 3-Phosphoglyceric acid (3-PG) is a downstream intermediate of Pgk1-catalyzed glycolysis but an upstream intermediate of Eno1-catalyzed glycolysis, while pyruvate is a downstream intermediate of Eno1-catalyzed glycolysis (Fig. 2F). […]

hEno1 = target: T1, hEno1 (Homo sapiens, UniProt P06733); test: Enolase activity analysis (absorbance at 240 nm of PEP); type: biochemical
T1 construct: 6xHis; made in house; host or cells: E. coli BL21(DE3), inferred from 'same procedure' as CaEno1
T1 sequence (P06733 whole entry): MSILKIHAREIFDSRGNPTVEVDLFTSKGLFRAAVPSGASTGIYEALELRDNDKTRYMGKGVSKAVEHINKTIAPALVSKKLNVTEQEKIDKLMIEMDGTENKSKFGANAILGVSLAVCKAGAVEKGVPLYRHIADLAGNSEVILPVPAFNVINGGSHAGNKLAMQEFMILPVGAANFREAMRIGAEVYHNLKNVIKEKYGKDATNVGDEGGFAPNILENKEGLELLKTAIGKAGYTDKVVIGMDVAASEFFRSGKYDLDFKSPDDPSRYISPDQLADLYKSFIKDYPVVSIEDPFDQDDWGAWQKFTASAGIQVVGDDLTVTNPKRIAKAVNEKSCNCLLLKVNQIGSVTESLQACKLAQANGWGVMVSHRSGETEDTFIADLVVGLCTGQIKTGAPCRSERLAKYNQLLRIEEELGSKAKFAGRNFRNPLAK
Method: Enolase activity was determined by direct spectrophotometric assay via measuring the increase of absorbance at 240 nm of phosphoenolpyruvate (PEP) as described previously with some modifications ([54]). Briefly, the reaction buffer (pH 7.0) containing 10 mM imidazole, 200 mM KCl, and 0.5 mM MgAc in a final reaction volume of 100 μL was mixed with Eno1 (a final concentration of 30 nM), followed by the mixture of 2-phosphoglycerate (2-PG) (Yuanye Biotech Shanghai) with a final concentration of 1 mM. The enolase activity of Eno1 was evaluated by measuring the increase of absorbance (OD240) at room temperature for 10 min. […] The well-known enolase inhibitor sodium fluoride (NaF; Sangon Biotech) was initiated from 5 mM and used as a control ([29]). Inhibition curves were fitted by nonlinear regression (four parameters) using the GraphPad Prism software.

## O=c1cc(-c2ccccc2)oc2cc(O)c(O)c(O)c12 [BE, Baicalein]
C. albicans SN152
  survival rate of larvae extended versus infected group without drug treatment: 30%
Candida albicans 103; MIC of FLC in combination with the compound
  Interaction MIC FLC: 1 µg/mL
Candida albicans 103; MIC of the compound in combination with FLC
  Interaction MIC Compounds: 1 µg/mL
Candida albicans 103; combination with FLC
  FICI: 0.039
Candida albicans 103; combination with FLC, FLC-resistant C. albicans
  Mode of interaction: Synergism
Candida albicans 103; compound alone
  Individual action MIC: 32 µg/mL
C. albicans; liquid YP medium with 3-PG (32 mg/mL)
  antifungal activity: strong antifungal activity
C. albicans; liquid YP medium with glucose (20 mg/mL)
  antifungal activity: strong antifungal activity
C. albicans; liquid YP medium with glycerol (2% vol/vol)
  antifungal activity: no antifungal activity
C. albicans; liquid YP medium with pyruvate (32 mg/mL)
  antifungal activity: no antifungal activity
hEno1
  IC50: 91.3 ± 3.1 µM

Source: article PMC9430770 (Microbiology Spectrum, 2022)
